Experimental data reported in patent US20150105252A1, “SUBSTITUTED PYRAZOLES AS HERBICIDES” (E I DU PONT DE NEMOURS AND COMPANY, priority 2013, published 2015).

Legend:
pigweed = assay: Test E preemergence; type: in vivo, Amaranthus retroflexus; details: 21 days, scale 0 to 100
From the text: (§1) Seeds of plant species selected from bermudagrass (Cynodon dactylon), Surinam grass (Brachiaria decumbens), crabgrass, large (large crabgrass, Digitaria sanguinalis), crabgrass, naked (naked crabgrass, Digitaria nuda), foxtail, green (green foxtail, Setaria viridis), johnsongrass (Sorghum halepense), kochia (Kochia scoparia), morningglory (pitted morningglory, Ipomoea lacunosa), nutsedge, purple (purple nutsedge, Cyperus rotundus), ragweed (common ragweed, Ambrosia elation), mustard, black (black mustard, Brassica nigra), guineagrass (Panicum maximum), dallisgrass (Paspalum dilatatum), barnyardgrass (Echinochloa crus-galli), sandbur (southern sandbur, Cenchrus echinatus), sowthistle (common sowthistle, Sonchus oleraceous), ryegrass, Italian (Italian ryegrass, Lolium multiflorum), signalgrass (broadleaf signalgrass, Brachiaria platyphylla), dayflower, VA (Virginia (VA) dayflower, Commelina virginica), bluegrass (annual bluegrass, Poa annua), quackgrass (Elytrigia repens), mallow (common mallow, Malva sylvestris), buckwheat, wild (wild buckwheat, Polygonum convolvulus), leafy spurge (Euphorbia esula), common chickweed (Stellaria media), wild poinsettia (Euphorbia heterophylla), pigweed, palmer (palmer pigweed, Amaranthus palmeri), and pigweed (redroot pigweed, Amaranthus retroflexus) were planted into a blend of loam soil and sand and treated preemergence with test chemicals formulated in a non-phytotoxic solvent mixture which included a surfactant.
(§2) Treated plants and controls were maintained in a greenhouse for 21 days, after which time all species were compared to controls and visually evaluated. Plant response ratings, summarized in Table E, are based on a scale of 0 to 100 where 0 is no effect and 100 is complete control. A dash (-) response means no test result.

dayflower, VA = assay: Test E preemergence; type: in vivo, Commelina virginica; details: 21 days, scale 0 to 100
From the text: as §1, §2

kochia [1] = assay: Test E preemergence; type: in vivo, Kochia scoparia; details: 21 days, scale 0 to 100
From the text: as §1, §2

mustard, black = assay: Test E preemergence; type: in vivo, Brassica nigra; details: 21 days, scale 0 to 100
From the text: as §1, §2

kochia [2] = assay: Test A postemergence; type: in vivo, Kochia scoparia
In short: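 Both timings tested concurrently in loam/sand soil: preemergence by directed soil spray, postemergence on plants of 2–10 cm at the one- to two-leaf stage. Greenhouse holding period was approximately 10 days before visual injury assessment (0–100, 0 = no effect).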

oat, wild = assay: Test D preemergence; type: in vivo, Avena fatua; details: scale 0 to 100
From the text: Seeds of plant species selected from bluegrass (annual bluegrass, Poa annua), blackgrass (Alopecurus myosuroides), canarygrass (littleseed canarygrass, Phalaris minor), chickweed (common chickweed, Stellaria media), galium (catchweed bedstraw, Galium aparine), bromegrass, downy (downy bromegrass, Bromus tectorum), field poppy (Papaver rhoeas), field violet (Viola arvensis), foxtail, green (green foxtail, Setaria viridis), deadnettle (henbit deadnettle, Lamium amplexicaule), ryegrass, Italian (Italian ryegrass, Lolium multiflorum), kochia (Kochia scoparia), lambsquarters (Chenopodium album), oilseed rape (Brassica napus), pigweed (redroot pigweed, Amaranthus retroflexus), chamomile (scentless chamomile, Matricaria inodora), speedwell (bird's-eye speedwell, Veronica persica), barley, spring (spring barley, Hordeum vulgare), wheat, spring (spring wheat, Triticum aestivum), buckwheat, wild (wild buckwheat, Polygonum convolvulus), mustard, wild (wild mustard, Sinapis arvensis), oat, wild (wild oat, Avena fatua), radish, wild (wild radish, Raphanus raphanistrum), windgrass (Apera spica-venti), Russian thistle (Salsola kali), barley, winter (winter barley, Hordeum vulgare), and wheat, winter (winter wheat, Triticum aestivum) were planted into a silt loam soil and treated preemergence with test chemicals formulated in a non-phytotoxic solvent mixture which included a surfactant.
At the same time, these species were planted in pots containing Redi-Earth® planting medium (Scotts Company, 14111 Scottslawn Road, Marysville, Ohio 43041) comprising spaghnum peat moss, vermiculite, wetting agent and starter nutrients and treated with postemergence applications of the test chemicals formulated in the same manner. Plants ranged in height from 2 to 18 cm (1- to 4-leaf stage). Treated plants and controls were maintained in a controlled growth environment for 14 to 21 days after which time all species were compared to controls and visually evaluated. Plant response ratings, summarized in Table D, are based on a scale of 0 to 100 where 0 is no effect and 100 is complete control. A dash (-) response means no test result.

[3] = Postemergence, 500 g ai/ha, 0 to 100 scale (0 no effect, 100 complete control)
[4] = postemergence, 125 g ai/ha, about 10 days, visual rating on 0 to 100 scale (0 no effect, 100 complete control)

Compound	Plant response rating, Pigweed (pigweed; 16 g ai/ha)	Plant response rating, Pigweed (pigweed; 31 g ai/ha)	Plant response rating, Pigweed (pigweed; 62 g ai/ha)	Plant response rating, Pigweed (pigweed; 125 g ai/ha)	Plant response rating, Pigweed (pigweed; 250 g ai/ha)	Plant response rating, Dayflower, VA (dayflower, VA; 16 g ai/ha)	Plant response rating, Dayflower, VA (dayflower, VA; 31 g ai/ha)	Plant response rating, Dayflower, VA (dayflower, VA; 62 g ai/ha)	Plant response rating, Dayflower, VA (dayflower, VA; 125 g ai/ha)	Plant response rating, Dayflower, VA (dayflower, VA; 250 g ai/ha)	Plant response rating, Kochia (kochia [1]; 16 g ai/ha)	Plant response rating, Kochia (kochia [1]; 31 g ai/ha)	Plant response rating, Kochia (kochia [1]; 62 g ai/ha)	Plant response rating, Kochia (kochia [1]; 125 g ai/ha)	Plant response rating, Kochia (kochia [1]; 250 g ai/ha)	Plant response rating, Mustard, Black (mustard, black; 16 g ai/ha)	Plant response rating, Mustard, Black (mustard, black; 31 g ai/ha)	Plant response rating, Mustard, Black (mustard, black; 62 g ai/ha)	Plant response rating, Mustard, Black (mustard, black; 125 g ai/ha)	Plant response rating, Mustard, Black (mustard, black; 250 g ai/ha)	other results
CCc1cc(C(=O)NCC(F)(F)F)nn1Cc1ccnc(C(F)(F)F)c1 [Compound 78, 5-ethyl-N-(2,2,2-trifluoroethyl)-1-[[(2-trifluoromethyl)-4-pyridinyl]methyl]-1H-pyrazole-3-carboxamide]	100	100	100	100	100	85	100	100	100	100	100	100	100	100	100	70	100	100	100	100	
CCc1cc(C(=O)NC(C)C)nn1Cc1ccnc(C(F)(F)F)c1 [Compound 103]	100	100	100	100	100	80	98	100	100	100	95	100	100	100	100	100	100	100	100	100	
CCOc1cc(C(=O)NCC(F)(F)F)nn1Cc1ccnc(C(F)(F)F)c1 [Compound 104]	100	100	100	100	100	98	98	100	100	100	100	100	100	100	100	100	100	100	100	100	
CCCc1cc(C(=O)NCC(F)(F)F)nn1Cc1ccnc(C(F)(F)F)c1 [Compound 105]	100	100	100	100	100	35	75	95	95	100	100	100	100	100	100	100	100	100	100	100	
CCONC(=O)c1cc(CC)n(Cc2cc(C(F)(F)F)no2)n1 [Compound 125]																					Kochia plant response rating (kochia [2]; [3]): 90; Kochia plant response rating (kochia [2]; [4]): 60
CCOc1cc(C(=O)NC2CC2)nn1Cc1ccnc(OC(F)F)c1 [Compound 133]																					Kochia plant response rating (kochia [2]; [3]): 100; Kochia plant response rating (kochia [2]; [4]): 90
CCCc1cc(C(=O)NCC(F)(F)F)nn1Cc1cc(C(F)(F)F)nn1C [Compound 138]																					Plant response rating, Oat, Wild (oat, wild; 62 g ai/ha): 35; Plant response rating, Oat, Wild (oat, wild; 125 g ai/ha): 75; Plant response rating, Oat, Wild (oat, wild; 250 g ai/ha): 100
CCOc1cc(C(=O)NC(C)C)nn1Cc1ccnc(C(F)(F)F)c1 [Compound 188]																					Plant response rating, Oat, Wild (oat, wild; 62 g ai/ha): 100; Plant response rating, Oat, Wild (oat, wild; 125 g ai/ha): 100; Plant response rating, Oat, Wild (oat, wild; 250 g ai/ha): 100
CCc1cc(C(=O)NCC(F)(F)F)nn1Cc1cc(OC(F)F)nn1C [Compound 206]																					Kochia plant response rating (kochia [2]; Postemergence, 125 g ai/ha, 0 to 100 scale, 0 no effect, 100 complete control): 80; Kochia plant response rating (kochia [2]; [3]): 90
